Reference: the CheMixHub viscosity set

Test: xn = mol fraction of the nth substance listed

CCCCCCCCCCCC(=O)OC + CCCCCCCCCCCC
viscosity [mPa·s], 100 kPa
Details | x2 = 0.0991 | x2 = 0.2004 | x2 = 0.3006 | x2 = 0.3991 | x2 = 0.5003 | x2 = 0.6 | x2 = 0.6997 | x2 = 0.8005 | x2 = 0.8995
293.15 K | 2.863 | 2.631 | 2.435 | 2.242 | 2.09 | 1.931 | 1.789 | 1.671 | 1.564
298.15 K | 2.554 | 2.356 | 2.185 | 2.009 | 1.883 | 1.749 | 1.624 | 1.514 | 1.425
303.15 K | 2.296 | 2.126 | 1.975 | 1.83 | 1.71 | 1.595 | 1.485 | 1.391 | 1.308
308.15 K | 2.081 | 1.93 | 1.797 | 1.671 | 1.563 | 1.461 | 1.363 | 1.28 | 1.205
313.15 K | 1.896 | 1.763 | 1.644 | 1.526 | 1.436 | 1.344 | 1.257 | 1.183 | 1.116
318.15 K | 1.735 | 1.616 | 1.511 | 1.402 | 1.318 | 1.243 | 1.164 | 1.098 | 1.037
323.15 K | 1.594 | 1.489 | 1.395 | 1.299 | 1.223 | 1.153 | 1.082 | 1.022 | 0.967

CCCCCCCCCCCCCCCCCCCl + CCCCCCCCCCCC
298 K, 101.3 kPa
Details | viscosity [mPa·s]
x2 = 0.1097 | 6.289
x2 = 0.2096 | 5.429
x2 = 0.3134 | 4.684
x2 = 0.4067 | 4
x2 = 0.5044 | 3.481
x2 = 0.6047 | 2.887
x2 = 0.6853 | 2.488
x2 = 0.805 | 2.012
x2 = 0.8971 | 1.662

CCOc1ccccc1 + CCCCCCCCCCO
viscosity [mPa·s], 101.3 kPa
Details | x1 = 0.0999 | x1 = 0.2011 | x1 = 0.2996 | x1 = 0.4003 | x1 = 0.5011 | x1 = 0.6025 | x1 = 0.6998 | x1 = 0.8007 | x1 = 0.9012
293.15 K | 11.33 | 8.76 | 6.789 | 5.22 | 4.017 | 3.116 | 2.486 | 2.001 | 1.637
298.15 K | 9.33 | 7.335 | 5.786 | 4.5 | 3.502 | 2.729 | 2.188 | 1.79 | 1.501
308.15 K | 6.907 | 5.541 | 4.402 | 3.45 | 2.705 | 2.149 | 1.724 | 1.397 | 1.144
318.15 K | 4.863 | 3.962 | 3.226 | 2.613 | 2.125 | 1.726 | 1.414 | 1.147 | 0.9405

CCOc1ccccc1 + CCCCCCCCCO
viscosity [mPa·s], 101.3 kPa
Details | x1 = 0.1012 | x1 = 0.2001 | x1 = 0.3006 | x1 = 0.4009 | x1 = 0.5013 | x1 = 0.6023 | x1 = 0.7018 | x1 = 0.8005 | x1 = 0.8997
293.15 K | 8.86 | 6.725 | 5.095 | 3.858 | 2.948 | 2.293 | 1.853 | 1.578 | 1.424
298.15 K | 7.33 | 5.611 | 4.298 | 3.299 | 2.57 | 2.039 | 1.692 | 1.488 | 1.361
308.15 K | 5.241 | 4.17 | 3.295 | 2.614 | 2.089 | 1.697 | 1.394 | 1.17 | 1.023
318.15 K | 3.906 | 3.16 | 2.525 | 2.033 | 1.654 | 1.371 | 1.152 | 0.9714 | 0.8556

CCOc1ccccc1 + CCCCCCCCO
viscosity [mPa·s], 101.3 kPa
Details | x1 = 0.1001 | x1 = 0.1976 | x1 = 0.2997 | x1 = 0.4014 | x1 = 0.4996 | x1 = 0.6027 | x1 = 0.7022 | x1 = 0.8015 | x1 = 0.9016
293.15 K | 6.96 | 5.353 | 4.171 | 3.317 | 2.691 | 2.194 | 1.86 | 1.63 | 1.491
298.15 K | 5.929 | 4.669 | 3.644 | 2.894 | 2.361 | 1.947 | 1.68 | 1.502 | 1.36
308.15 K | 4.308 | 3.441 | 2.698 | 2.152 | 1.742 | 1.436 | 1.234 | 1.111 | 1.042
318.15 K | 3.31 | 2.701 | 2.153 | 1.7 | 1.386 | 1.143 | 0.9913 | 0.9148 | 0.8795

CCCCCCCCn1cc[n+](C)c1.[Cl-] + CCCCCCCC[n+]1ccn(C)c1.F[B-](F)(F)F
101 kPa
Details | viscosity [mPa·s]
303.15 K, x1 = 0.2 | 529.1
308.15 K, x1 = 0.2 | 381.3
308.15 K, x1 = 0.4 | 756.6
313.15 K, x1 = 0.4 | 534.9
318.15 K, x1 = 0.4 | 386.7
318.15 K, x1 = 0.6 | 735.5
323.15 K, x1 = 0.6 | 523

CCOc1ccccc1 + CCCCCCCO
viscosity [mPa·s], 101.3 kPa
Details | x1 = 0.0989 | x1 = 0.1998 | x1 = 0.2988 | x1 = 0.4017 | x1 = 0.5011 | x1 = 0.6101 | x1 = 0.7004 | x1 = 0.8009 | x1 = 0.9031
293.15 K | 5.488 | 4.237 | 3.317 | 2.62 | 2.147 | 1.814 | 1.606 | 1.47 | 1.388
298.15 K | 4.761 | 3.758 | 2.978 | 2.379 | 1.916 | 1.583 | 1.412 | 1.295 | 1.252
308.15 K | 3.737 | 2.957 | 2.382 | 1.91 | 1.58 | 1.318 | 1.171 | 1.066 | 1.001
318.15 K | 2.785 | 2.261 | 1.846 | 1.517 | 1.28 | 1.083 | 0.9726 | 0.8947 | 0.8422

COC(=O)CC(C)=O + CCCCCCCO
viscosity [mPa·s], 101.33 kPa
Details | x1 = 0.1016 | x1 = 0.2071 | x1 = 0.3081 | x1 = 0.4096 | x1 = 0.5099 | x1 = 0.6072 | x1 = 0.7071 | x1 = 0.8059 | x1 = 0.9033
298.15 K | 4.066 | 3.167 | 2.651 | 2.278 | 2.012 | 1.842 | 1.663 | 1.546 | 1.512
303.15 K | 3.465 | 2.734 | 2.298 | 1.981 | 1.754 | 1.624 | 1.485 | 1.393 | 1.366
308.15 K | 2.97 | 2.357 | 1.998 | 1.733 | 1.545 | 1.452 | 1.337 | 1.264 | 1.245
